# From patent US20020094993A1, “Compositions for repelling crawling insects” (priority 2000, published 2002)
# Like-named read-outs stand apart in the source and are kept apart here.
# System: garden ants (Lasius niger)
# Assay: Repellent effect of active compounds on treated surfaces against ants
# Assay type: in vivo
# Design: pest or weed control: dose or concentration left out as unconfirmed
# Method: Determination of a Repellent Effect of Active Compounds on Treated Surfaces against Ants
# The tests are carried out in crystallizing dishes (Ø 30 cm, height 10 cm) using garden ants (Lasius niger). The walls of the dishes are treated with talc to prevent the test animals from escaping. The bottom of the dish is filled with a well-moistened layer of peat of a height of about 3-4 cm. At least 5 days before the beginning of the test, the dishes are populated with 300 ants which by the time the test starts will have built passages and hiding places. The dishes prepared in this manner can be used for several weeks as long as the substances examined are insecticide-free. The ants are fed with forest honey and crystalline sugar, and the feed is removed from the dishes during the tests.
# Immediately before the start of the test, 2 glass plates (5×10 cm) are placed into the dish. One plate had been treated with active compound, the other remains untreated.
# The activity of the ants can be monitored, for example, visually.
# What is determined is the number of ants which, within a period of 15 minutes, cross the surface to be evaluated. The activity has to be so high that at least 100 contacts are achieved. If the activity is not high enough, the time for the test has to be extended accordingly. By evaluating the number of contacts on the treated and the untreated tile, a possible repellent action can be determined.
# The results of the experiments with different compositions of repellent and additive are shown below. In the compositions, repellent and additive were mixed in a ratio of 100:100% by weight.
# [1] = Lasius niger, 24 h, additive alone, after 1 day, read-out: % reduction of contacts after days
# [2] = Lasius niger, 24 h, IR 3535/DEET table, after 1 day, read-out: % reduction of contacts after days
# [3] = Lasius niger, 48 h, IR 3535/DEET table, after 2 days, read-out: % reduction of contacts after days
# [4] = Lasius niger, 72 h, IR 3535/DEET table, after 3 days, read-out: % reduction of contacts after days
# [5] = Lasius niger, 96 h, IR 3535/DEET table, after 4 days, read-out: % reduction of contacts after days
# [6] = Lasius niger, 168 h, IR 3535/DEET table, after 7 days, read-out: % reduction of contacts after days
# [7] = Lasius niger, 192 h, IR 3535/DEET table, after 8 days, read-out: % reduction of contacts after days
# [8] = Lasius niger, 240 h, IR 3535/DEET table, after 10 days, read-out: % reduction of contacts after days
compound,measurement,setting,value
"COc1ccc(C=O)c(OC)c1 [2,4-Dimethoxybenzaldehyde]",pest or weed control,[1],0%
COc1cc(C=O)ccc1O [Vanillin],pest or weed control,[1],63%
same,pest or weed control,"Lasius niger, 48 h, additive alone, after 2 days, read-out: % reduction of contacts after days",46%
same,pest or weed control,"Lasius niger, 72 h, additive alone, after 3 days, read-out: % reduction of contacts after days",65%
same,pest or weed control,"Lasius niger, 96 h, additive alone, after 4 days, read-out: % reduction of contacts after days",83%
same,pest or weed control,"Lasius niger, 168 h, additive alone, after 7 days, read-out: % reduction of contacts after days",51%
same,pest or weed control,"Lasius niger, 192 h, additive alone, after 8 days, read-out: % reduction of contacts after days",35%
same,pest or weed control,"Lasius niger, 216 h, additive alone, after 9 days, read-out: % reduction of contacts after days",0%
same,pest or weed control,"Lasius niger, 240 h, additive alone, after 10 days, read-out: % reduction of contacts after days",0%
same,repellent effect of the additive on the ants,additive alone,slightly repellent effect
"CCN(CC)C(=O)c1cccc(C)c1 [compound 5, N,N-diethyl-m-toluamide]",pest or weed control,[2],100%
same,pest or weed control,[3],76%
same,pest or weed control,[4],0%
same,pest or weed control,[5],0%
same,pest or weed control,[6],27%
same,pest or weed control,[7],14%
same,pest or weed control,[8],0%
O=C(O)c1ccccc1O [Salicylic acid],pest or weed control at 500 mg/m2,"Lasius niger, 24 h, read-out: % reduction of contacts after days",3%
O=C/C=C/c1ccccc1 [trans-Cinnamaldehyde],pest or weed control,[1],0%
O=Cc1ccc(O)cc1 [p-Hydroxybenzaldehyde],pest or weed control,[1],23%
OCC(O)CO [Glycerol],pest or weed control,[1],0%
CCCCN(CCC(=O)OCC)C(C)=O [Ex. 1],pest or weed control,[2],98%
same,pest or weed control,[3],91%
same,pest or weed control,[4],29%
same,pest or weed control,[5],0%
same,pest or weed control,[6],0%
same,pest or weed control,[7],0%
same,pest or weed control,[8],0%
